Data as given in PubChem BioAssay AID1919004 (Molecular Pharmacology Branch, DTP, NCI, 2023).

Test system: 883617-216-R-J1-PDC complex spheroids, growth, % test/control
Assay: Anticancer human tumor 883617-216-R-J1-PDC patient-derived bladder carcinoma cell line growth inhibition [AhR]
Details: for IC50: curve of first compound; for viability, T/C: stronger effect = lower value; active means viability on the fitted dose curve at most 10% of control; inactive means the rest
Procedure, shortened: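 Agents were dosed in half-log steps down from roughly clinical Cmax, or from 10 microM where Cmax was unknown, alone and with AhR antagonists. Read-out: percent test/control growth of tumor spheroids containing HUVEC and MSC stromal cells.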
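Further: exposure lasted 7 days after dosing on day 3 of spheroid growth.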

CCc1c2c(nc3ccc(O)cc13)-c1cc3c(c(=O)n1C2)COC(=O)[C@]3(O)CC + Cc1cncc(-c2nc(NCCc3c[nH]c4ccccc34)c3ncn(C(C)C)c3n2)c1
inactive: viability, T/C (second compound 0.1 µM, first compound 0.000949 µM) 85.1% | viability, T/C (second compound 0.1 µM, first compound 0.003 µM) 79.9% | viability, T/C (second compound 0.1 µM, first compound 0.00949 µM) 79% | viability, T/C (second compound 0.1 µM, first compound 0.03 µM) 71.2% | viability, T/C (second compound 0.1 µM, first compound 0.0949 µM) 61.1% | viability, T/C (second compound 0.1 µM, first compound 0.3 µM) 49% | viability, T/C (second compound 0.316 µM, first compound 0.000949 µM) 83.9% | viability, T/C (second compound 0.316 µM, first compound 0.003 µM) 94.5% | viability, T/C (second compound 0.316 µM, first compound 0.00949 µM) 77.5% | viability, T/C (second compound 0.316 µM, first compound 0.03 µM) 65.8% | viability, T/C (second compound 0.316 µM, first compound 0.0949 µM) 56.4% | viability, T/C (second compound 0.316 µM, first compound 0.3 µM) 54.3% | viability, T/C (second compound 1 µM, first compound 0.000949 µM) 87.6% | viability, T/C (second compound 1 µM, first compound 0.003 µM) 89.3% | viability, T/C (second compound 1 µM, first compound 0.00949 µM) 84.7% | viability, T/C (second compound 1 µM, first compound 0.03 µM) 72.5% | viability, T/C (second compound 1 µM, first compound 0.0949 µM) 64.3% | viability, T/C (second compound 1 µM, first compound 0.3 µM) 53.9% | viability, T/C (second compound 3.16 µM, first compound 0.000949 µM) 91.9% | viability, T/C (second compound 3.16 µM, first compound 0.003 µM) 99.5% | viability, T/C (second compound 3.16 µM, first compound 0.00949 µM) 86.1% | viability, T/C (second compound 3.16 µM, first compound 0.03 µM) 88.9% | viability, T/C (second compound 3.16 µM, first compound 0.0949 µM) 55.8% | viability, T/C (second compound 3.16 µM, first compound 0.3 µM) 49.4% | viability, T/C (second compound 10 µM, first compound 0.000949 µM) 44.6% | viability, T/C (second compound 10 µM, first compound 0.003 µM) 48.3% | viability, T/C (second compound 10 µM, first compound 0.00949 µM) 27.3% | viability, T/C (second compound 10 µM, first compound 0.03 µM) 31.3% | viability, T/C (second compound 10 µM, first compound 0.0949 µM) 25.5% | viability, T/C (second compound 10 µM, first compound 0.3 µM) 27.1%
0.27 µM: IC50 (second compound 0.1 µM)
< 0.000949 µM: IC50 (second compound 10 µM)
> 0.3 µM: IC50 (second compound 0.316 µM) | IC50 (second compound 1 µM)
0.265 µM: IC50 (second compound 3.16 µM)
